Results as given in the supplement of paper PMC10307832.

Key:
Assay in all cases: relative viability (nuclei count vs DMSO), 5 days (fraction); higher = more cells survive
Tozasertib + AZD7762 = compound: Cc1cc(Nc2cc(N3CCN(C)CC3)nc(Sc3ccc(NC(=O)C4CC4)cc3)n2)n[nH]1 [Tozasertib] + NC(=O)Nc1cc(-c2cccc(F)c2)sc1C(=O)N[C@H]1CCCNC1 [AZD7762] (partner 0.2 µM)
In short: (§1)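 Relative viability divides the nuclei count in treated wells by that in vehicle wells. Lung cancer cell lines were seeded in 1536-well plates, dosed by pin tool the next day, and fixed and stained after 5 days in one step with final 0.05% Triton X-100, 1% formaldehyde and 1 ug/ml Hoechst. Dosing was a single drug or a fixed anchor-drug dose plus five library-drug doses (not always all listed) in √10 steps, and values are medians of duplicate plates imaged at 4×.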

Tozasertib + Pemetrexed = compound: Cc1cc(Nc2cc(N3CCN(C)CC3)nc(Sc3ccc(NC(=O)C4CC4)cc3)n2)n[nH]1 [Tozasertib] + Nc1nc2[nH]cc(CCc3ccc(C(=O)N[C@@H](CCC(=O)O)C(=O)O)cc3)c2c(=O)[nH]1 [Pemetrexed] (partner 0.2 µM)
In short: as §1

Tozasertib + Linsitinib = compound: Cc1cc(Nc2cc(N3CCN(C)CC3)nc(Sc3ccc(NC(=O)C4CC4)cc3)n2)n[nH]1 [Tozasertib] + C[C@]1(O)C[C@@H](c2nc(-c3ccc4ccc(-c5ccccc5)nc4c3)c3c(N)nccn32)C1 [Linsitinib] (partner 1 µM)
In short: as §1

Tozasertib + Decitabine = compound: Cc1cc(Nc2cc(N3CCN(C)CC3)nc(Sc3ccc(NC(=O)C4CC4)cc3)n2)n[nH]1 [Tozasertib] + Nc1ncn([C@H]2C[C@H](O)[C@@H](CO)O2)c(=O)n1 [Decitabine] (partner 2 µM)
In short: as §1

Tozasertib + Crizotinib = compound: Cc1cc(Nc2cc(N3CCN(C)CC3)nc(Sc3ccc(NC(=O)C4CC4)cc3)n2)n[nH]1 [Tozasertib] + C[C@@H](Oc1cc(-c2cnn(C3CCNCC3)c2)cnc1N)c1c(Cl)ccc(F)c1Cl [Crizotinib] (partner 1 µM)
In short: as §1

Cell Line	relative viability (Tozasertib + AZD7762; first compound 0.004 µM)	relative viability (Tozasertib + AZD7762; first compound 0.01265 µM)	relative viability (Tozasertib + AZD7762; first compound 0.04 µM)	relative viability (Tozasertib + AZD7762; first compound 0.1265 µM)	relative viability (Tozasertib + Pemetrexed; first compound 0.004 µM)	relative viability (Tozasertib + Pemetrexed; first compound 0.01265 µM)	relative viability (Tozasertib + Pemetrexed; first compound 0.04 µM)	relative viability (Tozasertib + Pemetrexed; first compound 0.1265 µM)	relative viability (Tozasertib + Linsitinib; first compound 0.004 µM)	relative viability (Tozasertib + Linsitinib; first compound 0.01265 µM)	relative viability (Tozasertib + Linsitinib; first compound 0.04 µM)	relative viability (Tozasertib + Decitabine; first compound 0.004 µM)	relative viability (Tozasertib + Decitabine; first compound 0.01265 µM)	relative viability (Tozasertib + Decitabine; first compound 0.04 µM)	relative viability (Tozasertib + Decitabine; first compound 0.1265 µM)	relative viability (Tozasertib + Crizotinib; first compound 0.004 µM)	relative viability (Tozasertib + Crizotinib; first compound 0.01265 µM)	relative viability (Tozasertib + Crizotinib; first compound 0.04 µM)	relative viability (Tozasertib + Linsitinib; first compound 0.1265 µM)	relative viability (Tozasertib + Crizotinib; first compound 0.1265 µM)
EPLC-272H	0.147	0.249	0.192	0.301	0.341	0.381	0.258	0.206	1.13	1.18	1.12	0.369	0.325	0.368	0.318	0.851	1.03	0.823		
NCI-H2087	1.13	1.24	1.33	1.01	0.72	0.698	0.671	0.688	0.925	1.13	1.08	0.244	0.257	0.306	0.143	0.837	0.865	0.804	0.841	0.658
NCI-H1666	0.941	0.761	0.903	0.671	0.843	0.921	0.846	0.816	0.835	0.854	0.861	0.746	0.68	0.678	0.521	0.974	1.27	0.958	0.64	0.578
NCI-H2126	1.01		1.05	1.02	0.688	0.736		0.729	0.623	0.728	0.825	0.551	0.58	0.612	0.606	1.17	1.03	1.09	0.716	0.996
NCI-H322M	0.497	0.507	0.572	0.48	0.575	0.585	0.629	0.478	0.893	0.998	0.923	0.656	0.661	0.675	0.618	0.891	0.894	0.552	0.848	0.584
NCI-H1944	0.403	0.479	0.443	0.327	0.577	0.579	0.588	0.537	1.12	1.25	1.18	0.404	0.396	0.403	0.349	0.943	0.962	1.04	0.798	0.616
NCI-H1755	0.46	0.432	0.406	0.445	0.376	0.42	0.401	0.4	0.976	0.948	0.999	0.744		0.62	0.644	0.803	0.89	0.852	0.865	0.634
PC-14	0.31	0.236	0.336	0.213		0.145	0.143	0.125	1.01	1	1.03		0.21	0.184	0.128	0.896	0.914	1.02	0.828	0.884
NCI-H2085	0.928	0.906	0.971	0.929	0.935	0.815	1.03	0.802	0.966	0.865	0.949	0.578	0.508	0.538	0.485	0.953	0.959	0.667	0.649	0.597
LU99A	0.314	0.328	0.306	0.169	0.165	0.155	0.207	0.193	0.655	0.448	0.412	0.968	0.859	0.785	0.504	0.627	0.514	0.466	0.292	0.27
EMC-BAC-2	1.15	1.12	0.93	0.47	0.464	0.407	0.467	0.428	0.867	0.79		0.977	0.86	0.918	0.58	0.803	0.704	0.461	0.611	0.23
NCI-H3122	1	0.952	1.06	1.07	0.193	0.214	0.191	0.218	0.994	0.997	0.962	0.444	0.356	0.48	0.494	0.26	0.287	0.289	1.05	0.277
NCI-H1792	0.902	0.588	0.904	0.69	0.928	0.616	0.895	0.515	0.461	0.398	0.528	0.601	0.534	0.482	0.505	0.951	0.9	1.16	0.331	0.913
RERF-LC-KJ	1.08		1.06	0.371	0.465	0.442	0.486	0.361	0.876	0.861	0.907	0.532	0.592	0.645	0.508	0.815	0.792	0.734	0.777	0.689
NCI-H650	0.935	1.07	0.797	1.05	1.01	0.897	0.878	0.82	0.967	0.771	0.754	0.38	0.288	0.334	0.284	0.8	0.73	0.574	0.513	0.397
NCI-H596			1.2	0.871	0.549	0.477		0.473	1.08	0.979	1.15	0.984	0.948	0.853	0.888	1.09	0.949	1.01	1.03	0.79
